Consider five compounds from article PMC10970924 (Life, 2024).

The subject of one assay is porcine neuronal tubulin. Put plainly: Tubulin polymerization assay (Cytoskeleton kit). The conditions noted are these: effector 10 µM; for Maximum Initial Rate of Polymerization V Max: tubulin 3 mg/mL, 37 °C. Format: biochemical. The procedure:
To assess the effect of the test compounds on tubulin polymerization, a test kit from Cytoskeleton was used. The plate was pre-warmed to 37 °C for 20 min before starting the assay. Then, 10 µL of the compound of interest, at a 10-fold concentration in an assay buffer, was pipetted into the plate. For comparison, paclitaxel, a polymerization enhancer, and vinblastine, a tubulin polymerization inhibitor, were used. Both effectors were used at a concentration of 10 µM. The assay buffer served as a control. The plate was then incubated at 37 °C for 2 min, after which 100 µL of the diluted tubulin solution (containing 3 mg/mL of tubulin in 80 mM PIPES pH 6.9, 2 mM MgCl2, 0.5 mM EGTA, 1 mM GTP, and 7% glycerol) was added. The plate was then immediately placed in the plate reader. Absorbance was measured at 340 nm every minute for 61 readings on a Varioskan LUX (Thermo Scientific, Waltham, MA, USA) plate reader.

The nature of assay [1]: Neutralization of the ABTS radical. The conditions noted are these: for EC50: 37 °C, 15 min, 738 nm, read-out: EC50 of half-maximal ABTS radical inhibition; for Trolox Equivalent Antioxidant Capacity (TEAC): ABTS radical neutralization, relative to Trolox. Here is the method:
Initially, an ABTS solution was prepared in water at a concentration of 7 mM. Subsequently, the radical cation ABTS^•+ was generated by mixing the original ABTS solution with 2.45 mM ammonium persulfate at a 1:1 ratio. This mixture was then allowed to stand in the dark at room temperature for 12–16 h before use. The diluted ABTS^•+ solution was prepared in a methanol/water mixture (1:1) reaching an optical density of 0.7 units at 738 nm (~0.7 mM). Next, various concentrations of compounds (ranging from 1000, 500, 250, 125, 62.5, 31.2, 15.6, to 7.8 μM) in a volume of 130 µL in a methanol/water mixture (1:1) were mixed with the ABTS radical cation solution (~0.7 mM) in a volume of 130 µL. The mixture was then incubated at 37 °C in a water bath for 15 min. The optical density was measured at 738 nm using the Infinite M200 PRO (TECAN, Zürich, Switzerland) plate reader. The percentage inhibition of ABTS absorption relative to the control was calculated. A percent inhibition vs. antioxidant concentration graph was plotted and the concentration of the antioxidant that suppresses the optical density of the ABTS radical by 50% (EC50) was determined. The Trolox Equivalent Antioxidant Capacity (TEAC) was also calculated.

Marks after values point to notes of the source that are not given here.

For `CC(=O)O[C@H]1C(=O)[C@@]2(C)[C@H]([C@H](OC(=O)c3ccccc3)[C@]3(O)C[C@H](OC(=O)[C@H](O)[C@@H](NC(=O)c4ccccc4)c4ccccc4)C(C)=C1C3(C)C)[C@]1(OC(C)=O)CO[C@@H]1C[C@@H]2O` [Paclitaxel, paclitaxel], in the assay with porcine neuronal tubulin, the “Vmax, times higher than in the control reaction” value amounted to 1.2 and the “Maximum Initial Rate of Polymerization V Max” value (“Maximum Initial Rate” for short) is recorded as 8 * mOD/Min. Moreover, in the assay with porcine neuronal tubulin (listed as paclitaxel), the “Maximum Initial Rate” value came to 8.0 mOD/Min.

Turning to `O=c1c(O)c(-c2ccc(O)c(O)c2)oc2cc(O)cc(O)c12` [Quercetin], in assay [1], the EC50 was found to be 3.2 ± 1.6 µM and the “Trolox Equivalent Antioxidant Capacity (TEAC)” value is recorded as 4.9.

On to `O=C1O[C@H]([C@@H](O)CO)C(O)=C1O` [Ascorbic acid], for which, in assay [1], the EC50 stood at 15.2 ± 4.8 µM and the “Trolox Equivalent Antioxidant Capacity (TEAC)” value is 1.03.

As for `CC[C@]1(O)C[C@@H]2CN(CCc3c([nH]c4ccccc34)[C@@](C(=O)OC)(c3cc4c(cc3OC)N(C)[C@H]3[C@@](O)(C(=O)OC)[C@H](OC(C)=O)[C@]5(CC)C=CCN6CC[C@]43[C@@H]65)C2)C1` [Vinblastine, vinblastine], the “Inhibition of tubulin polymerization, fold” value with porcine neuronal tubulin is 3. The “Maximum Initial Rate” value with porcine neuronal tubulin was 2.4 * mOD/Min; with porcine neuronal tubulin (listed as vinblastine), 2.4 mOD/Min.

`Cc1c(C)c2c(c(C)c1O)CCC(C)(C(=O)O)O2` (stereo not drawn) [Trolox]: in assay [1], the EC50 is 15.7 ± 3.4 µM and the “Trolox Equivalent Antioxidant Capacity (TEAC)” value was found to be 1.0.

Broadly, the EC50 is the concentration giving half of the maximal effect.
